What was measured:
[1] = target: T1, IKZF1 (Homo sapiens, UniProt Q13422+Q96SW2); assay: Western-blot assay of substrate protein degradation in hPBMCs, IKZF1; type: cell-based; conditions: 24 hours of compound treatment, 50 nM and 500 nM tested (concentration behind the class not stated)
T1 construct: endogenous in cells; host or cells: hPBMCs (Milecell Biotechnologies)

[2] = target: T2, IKZF2 (Homo sapiens, UniProt Q96SW2+Q9UKS7); assay: Western-blot assay of substrate protein degradation in hPBMCs, IKZF2; type: cell-based; conditions: 24 hours of compound treatment, 50 nM and 500 nM tested (concentration behind the class not stated)
T2 construct: endogenous in cells; host or cells: hPBMCs (Milecell Biotechnologies)
T2 sequence (Q9UKS7 whole entry): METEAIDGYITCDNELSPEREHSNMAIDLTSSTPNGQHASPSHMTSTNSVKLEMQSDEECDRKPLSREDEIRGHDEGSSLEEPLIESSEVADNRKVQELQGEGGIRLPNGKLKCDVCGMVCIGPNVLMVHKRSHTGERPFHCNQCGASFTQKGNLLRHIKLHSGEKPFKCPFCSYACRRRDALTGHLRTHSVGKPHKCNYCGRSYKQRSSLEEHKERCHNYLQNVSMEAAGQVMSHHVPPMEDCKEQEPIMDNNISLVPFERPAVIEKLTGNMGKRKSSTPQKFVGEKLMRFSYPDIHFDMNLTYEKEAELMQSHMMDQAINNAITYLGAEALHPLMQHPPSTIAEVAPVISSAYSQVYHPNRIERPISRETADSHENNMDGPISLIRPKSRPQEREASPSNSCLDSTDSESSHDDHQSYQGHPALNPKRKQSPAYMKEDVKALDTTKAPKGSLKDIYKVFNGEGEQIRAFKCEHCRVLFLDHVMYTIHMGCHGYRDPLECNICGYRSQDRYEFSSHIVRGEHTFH
T2 sequence (Q96SW2 whole entry): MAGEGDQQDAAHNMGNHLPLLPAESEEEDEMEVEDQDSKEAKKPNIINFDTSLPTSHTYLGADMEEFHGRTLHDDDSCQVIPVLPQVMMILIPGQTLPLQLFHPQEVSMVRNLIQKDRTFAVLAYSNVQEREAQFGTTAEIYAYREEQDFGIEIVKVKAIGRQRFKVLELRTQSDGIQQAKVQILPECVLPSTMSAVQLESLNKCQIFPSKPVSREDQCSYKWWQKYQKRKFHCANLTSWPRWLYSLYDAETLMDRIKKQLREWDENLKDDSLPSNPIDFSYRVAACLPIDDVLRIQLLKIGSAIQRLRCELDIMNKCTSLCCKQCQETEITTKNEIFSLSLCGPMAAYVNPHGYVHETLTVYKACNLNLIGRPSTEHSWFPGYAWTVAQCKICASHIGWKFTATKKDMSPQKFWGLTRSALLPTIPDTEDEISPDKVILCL
T2 sequence (Q16531 whole entry partner): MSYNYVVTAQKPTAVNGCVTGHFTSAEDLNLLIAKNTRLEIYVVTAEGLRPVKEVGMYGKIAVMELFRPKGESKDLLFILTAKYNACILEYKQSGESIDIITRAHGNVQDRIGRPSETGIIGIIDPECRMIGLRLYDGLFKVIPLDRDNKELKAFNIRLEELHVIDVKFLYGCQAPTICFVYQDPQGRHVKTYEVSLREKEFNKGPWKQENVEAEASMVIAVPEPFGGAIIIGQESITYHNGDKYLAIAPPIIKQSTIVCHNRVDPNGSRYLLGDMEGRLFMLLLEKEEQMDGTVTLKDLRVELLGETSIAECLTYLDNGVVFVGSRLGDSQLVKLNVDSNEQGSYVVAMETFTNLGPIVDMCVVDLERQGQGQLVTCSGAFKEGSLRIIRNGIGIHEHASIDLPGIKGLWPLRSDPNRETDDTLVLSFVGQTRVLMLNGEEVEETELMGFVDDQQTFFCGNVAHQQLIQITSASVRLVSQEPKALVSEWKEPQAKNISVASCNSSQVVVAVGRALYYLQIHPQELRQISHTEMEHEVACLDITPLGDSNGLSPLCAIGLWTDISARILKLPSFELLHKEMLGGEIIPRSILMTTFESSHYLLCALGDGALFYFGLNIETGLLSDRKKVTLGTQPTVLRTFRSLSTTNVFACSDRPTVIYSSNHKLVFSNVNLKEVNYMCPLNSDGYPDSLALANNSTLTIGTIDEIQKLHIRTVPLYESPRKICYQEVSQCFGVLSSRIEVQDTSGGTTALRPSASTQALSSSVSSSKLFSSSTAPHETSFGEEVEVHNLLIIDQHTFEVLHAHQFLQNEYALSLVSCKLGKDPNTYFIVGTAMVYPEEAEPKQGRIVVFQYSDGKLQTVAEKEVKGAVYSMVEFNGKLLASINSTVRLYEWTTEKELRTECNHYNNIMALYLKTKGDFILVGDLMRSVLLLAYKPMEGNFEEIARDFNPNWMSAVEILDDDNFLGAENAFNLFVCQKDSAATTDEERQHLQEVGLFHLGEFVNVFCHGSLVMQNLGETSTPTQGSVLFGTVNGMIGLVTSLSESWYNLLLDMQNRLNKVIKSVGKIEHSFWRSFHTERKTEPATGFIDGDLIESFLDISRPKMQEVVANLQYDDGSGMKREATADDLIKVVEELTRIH

[3] = tested on: Jurkat; assay: Tumor cell proliferation inhibition (CellTiter-Meiluncell Luminescent Cell Viability Assay), Jurkat; conditions: Homo sapiens, read-out: inhibitory activity (IC50, nM) against tumor cells proliferation, Jurkat
[4] = target: T3, IKZF3 (Homo sapiens, UniProt Q96SW2+Q9UKT9); assay: Western-blot assay of substrate protein degradation in hPBMCs, IKZF3; type: cell-based; conditions: 24 hours of compound treatment, 50 nM and 500 nM tested (concentration behind the class not stated)
T3 construct: endogenous in cells; host or cells: hPBMCs (Milecell Biotechnologies)
T3 sequence (Q9UKT9 whole entry): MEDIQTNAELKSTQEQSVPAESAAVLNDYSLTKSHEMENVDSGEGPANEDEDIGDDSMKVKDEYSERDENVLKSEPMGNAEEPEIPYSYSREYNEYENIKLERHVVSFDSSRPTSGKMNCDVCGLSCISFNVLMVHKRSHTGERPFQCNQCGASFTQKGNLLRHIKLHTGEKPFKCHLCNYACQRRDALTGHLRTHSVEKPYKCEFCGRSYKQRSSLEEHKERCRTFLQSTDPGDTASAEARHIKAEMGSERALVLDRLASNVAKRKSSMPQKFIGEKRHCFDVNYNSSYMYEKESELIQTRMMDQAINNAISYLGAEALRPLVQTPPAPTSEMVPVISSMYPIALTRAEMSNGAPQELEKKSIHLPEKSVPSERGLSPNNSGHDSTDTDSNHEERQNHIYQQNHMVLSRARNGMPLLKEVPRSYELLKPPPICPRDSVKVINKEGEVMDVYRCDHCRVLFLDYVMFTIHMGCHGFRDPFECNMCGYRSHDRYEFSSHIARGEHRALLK
T3 sequence (Q96SW2 whole entry): as the sequence (Q96SW2 whole entry) above
T3 sequence (Q16531 whole entry partner): as the sequence (Q16531 whole entry partner) above

[5] = target: T4, GSPT1 (Homo sapiens, UniProt P15170+Q96SW2); assay: Western-blot assay of substrate protein degradation in hPBMCs, GSPT1; type: cell-based; conditions: 24 hours of compound treatment, 50 nM and 500 nM tested (concentration behind the class not stated)
T4 construct: endogenous in cells; host or cells: hPBMCs (Milecell Biotechnologies)
T4 sequence (P15170 whole entry): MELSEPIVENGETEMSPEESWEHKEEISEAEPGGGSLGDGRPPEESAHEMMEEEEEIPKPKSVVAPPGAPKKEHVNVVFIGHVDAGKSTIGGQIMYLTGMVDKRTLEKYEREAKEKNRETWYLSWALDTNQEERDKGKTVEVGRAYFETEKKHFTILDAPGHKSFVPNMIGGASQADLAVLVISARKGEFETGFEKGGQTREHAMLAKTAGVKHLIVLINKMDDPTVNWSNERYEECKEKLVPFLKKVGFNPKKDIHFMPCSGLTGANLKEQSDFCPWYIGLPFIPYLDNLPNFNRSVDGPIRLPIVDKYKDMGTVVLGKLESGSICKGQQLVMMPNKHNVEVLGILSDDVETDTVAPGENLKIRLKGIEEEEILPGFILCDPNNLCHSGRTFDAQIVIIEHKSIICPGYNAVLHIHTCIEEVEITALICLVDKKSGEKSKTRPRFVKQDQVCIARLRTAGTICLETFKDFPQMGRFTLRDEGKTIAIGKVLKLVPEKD
T4 sequence (Q96SW2 whole entry): as the sequence (Q96SW2 whole entry) above
T4 sequence (Q16531 whole entry partner): as the sequence (Q16531 whole entry partner) above

[6] = target: T5, CK1α (Homo sapiens, UniProt P48729+Q96SW2); assay: Western-blot assay of substrate protein degradation in hPBMCs, CK1α; type: cell-based; conditions: 24 hours of compound treatment, 50 nM and 500 nM tested (concentration behind the class not stated)
T5 construct: endogenous in cells; host or cells: hPBMCs (Milecell Biotechnologies)

[7] = tested on: CCRF-CEM; assay: Tumor cell proliferation inhibition (CellTiter-Meiluncell Luminescent Cell Viability Assay), CCRF-CEM; conditions: Homo sapiens, read-out: inhibitory activity (IC50, nM) against tumor cells proliferation, CCRF-CEM
[8] = tested on: MV-4-11; assay: Tumor cell proliferation inhibition (CellTiter-Meiluncell Luminescent Cell Viability Assay), MV-4-11; conditions: Homo sapiens, MV4-11, read-out: inhibitory activity (IC50, nM) against tumor cells proliferation, MV-4-11
[9] = target: T6, WEE1 (Homo sapiens, UniProt P30291+Q96SW2); assay: Western-blot assay of substrate protein degradation in hPBMCs, WEE1; type: cell-based; conditions: 24 hours of compound treatment, 50 nM and 500 nM tested (concentration behind the class not stated)
T6 construct: endogenous in cells; host or cells: hPBMCs (Milecell Biotechnologies)
T6 sequence (P30291 whole entry): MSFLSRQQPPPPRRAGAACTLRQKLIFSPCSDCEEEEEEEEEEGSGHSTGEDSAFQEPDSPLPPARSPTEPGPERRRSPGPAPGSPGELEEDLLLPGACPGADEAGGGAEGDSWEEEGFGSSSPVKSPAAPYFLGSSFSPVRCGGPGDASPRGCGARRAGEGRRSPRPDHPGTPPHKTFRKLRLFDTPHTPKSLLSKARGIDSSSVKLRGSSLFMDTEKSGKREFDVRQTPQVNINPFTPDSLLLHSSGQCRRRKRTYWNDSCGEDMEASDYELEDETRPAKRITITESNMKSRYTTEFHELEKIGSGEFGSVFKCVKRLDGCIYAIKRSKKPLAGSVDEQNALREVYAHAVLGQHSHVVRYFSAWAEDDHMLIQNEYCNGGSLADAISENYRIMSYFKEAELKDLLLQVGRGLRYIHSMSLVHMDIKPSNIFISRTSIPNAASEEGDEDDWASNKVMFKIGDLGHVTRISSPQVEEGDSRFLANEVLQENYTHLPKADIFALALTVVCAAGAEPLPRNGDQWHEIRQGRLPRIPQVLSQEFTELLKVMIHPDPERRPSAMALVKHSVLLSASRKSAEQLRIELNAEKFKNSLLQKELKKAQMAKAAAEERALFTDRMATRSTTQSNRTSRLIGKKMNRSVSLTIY
T6 sequence (Q96SW2 whole entry): as the sequence (Q96SW2 whole entry) above
T6 sequence (Q16531 whole entry partner): as the sequence (Q16531 whole entry partner) above

[10] = tested on: Human acute T lymphocytic leukemia cells (Molt-4); assay: Tumor cell proliferation inhibition (CellTiter-Meiluncell Luminescent Cell Viability Assay), Molt-4; conditions: MOLT-4, read-out: inhibitory activity (IC50, nM) against tumor cells proliferation, Molt-4
[11] = target: T7, human Cereblon WT GST-tagged protein (Homo sapiens, UniProt Q96SW2); assay: CRBN-binding affinity by HTRF (CEREBLON BINDING kit); conditions: HTRF inhibitory activity, CEREBLON BINDING kit; read-out: HTRF IC50
T7 construct: purchased CISBIO 64BDCRBNPEH
T7 sequence (Q96SW2 whole entry): as the sequence (Q96SW2 whole entry) above

[12] = tested on: MM.1S; assay: Tumor cell proliferation inhibition (CellTiter-Meiluncell Luminescent Cell Viability Assay), MM.1S; conditions: Homo sapiens, MM1.S, read-out: inhibitory activity (IC50, nM) against tumor cells proliferation, MM.1S
Description: (§1) The tumor cells used herein were cultured in a cell culture medium listed in table 2 at 37°C in an incubator with 5% CO2. Prior to experimentation, all cell lines used were correctly identified by STR profiling, and tested negative for mycoplasma contamination using a mycoplasma detection kit through routine screenings.
(§2) On the following day, the test compounds of the present disclosure were subjected to serial dilution. […] Subsequently, 0.5 µL of the test compound dilution was transferred into the 96-well plate containing the cells, with each well containing 100 µL of cell culture medium. […] Into the 96-well plate, the diluted test compounds and corresponding detection reagents were added, resulting in final test compound concentrations of 500 nM and 10 nM, respectively.
(§3) After the cells were treated with the compounds of the present disclosure for a specified period (the treatment durations were shown in Table 3), the cell viability assay reagent was added to the culture medium according to the kit's instructions to determine cell viability. […] All controls were treated using the same procedure as the compounds of the present disclosure. The growth inhibition curves for the compounds of the present disclosure were plotted using Prism GraphPad software, and the IC50 values were calculated therefrom.

[13] = tested on: NCI-H1975; assay: Tumor cell proliferation inhibition (CellTiter-Meiluncell Luminescent Cell Viability Assay), NCI-H1975; conditions: Homo sapiens, NCI-H1975, read-out: inhibitory activity (IC50, nM) against tumor cells proliferation, H1975
[14] = tested on: TMD8; assay: Tumor cell proliferation inhibition (CellTiter-Meiluncell Luminescent Cell Viability Assay), TMD8; conditions: Homo sapiens, TMD8, read-out: inhibitory activity (IC50, nM) against tumor cells proliferation, TMD8
Description: as §1
On the following day, the test compounds of the present disclosure were subjected to serial dilution. […] Subsequently, 0.5 µL of the test compound dilution was transferred into the 96-well plate containing the cells, with each well containing 100 µL of cell culture medium. […] Into the 96-well plate, the diluted test compounds and corresponding detection reagents were added, resulting in final test compound concentrations of 500 nM and 10 nM, respectively. The experimental procedure is described below using the diluted 2 µM test compound as an example.
as §3

[15] = tested on: SR; assay: Tumor cell proliferation inhibition (CellTiter-Meiluncell Luminescent Cell Viability Assay), SR; conditions: Homo sapiens, read-out: inhibitory activity (IC50, nM) against tumor cells proliferation, SR
Description: as §1, §2, §3

T1 sequence (Q13422 whole entry): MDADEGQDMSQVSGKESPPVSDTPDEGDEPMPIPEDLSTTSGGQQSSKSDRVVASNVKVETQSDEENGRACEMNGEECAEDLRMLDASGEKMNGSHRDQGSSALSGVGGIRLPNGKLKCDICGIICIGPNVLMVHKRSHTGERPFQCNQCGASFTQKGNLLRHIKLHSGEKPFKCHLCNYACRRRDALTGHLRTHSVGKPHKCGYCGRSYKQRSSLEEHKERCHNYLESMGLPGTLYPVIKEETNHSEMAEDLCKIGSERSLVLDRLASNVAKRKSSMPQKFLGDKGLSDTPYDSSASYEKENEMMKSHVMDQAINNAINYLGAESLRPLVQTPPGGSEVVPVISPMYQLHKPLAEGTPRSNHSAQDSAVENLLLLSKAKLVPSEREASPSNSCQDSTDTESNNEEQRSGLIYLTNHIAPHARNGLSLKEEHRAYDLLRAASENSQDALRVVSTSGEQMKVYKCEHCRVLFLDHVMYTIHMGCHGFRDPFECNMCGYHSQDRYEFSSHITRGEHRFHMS
T1 sequence (Q96SW2 whole entry): as the sequence (Q96SW2 whole entry) above
T1 sequence (Q16531 whole entry partner): as the sequence (Q16531 whole entry partner) above

Row | SMILES | IKZF 1 substrate protein remaining % [1] | IKZF2 substrate protein remaining % [2] | IC50 [3] [nM] | IKZF3 substrate protein remaining % [4] | GSPT1 substrate protein remaining % [5] | CK1a substrate protein remaining % [6] | IC50 [7] [nM] | IC50 [8] [nM] | Weel substrate protein remaining % [9] | IC50 [10] [nM] | IC50 [11] [nM] | IC50 [12] [nM] | IC50 [13] [nM] | IC50 [14] [nM] | IC50 [15] [nM]
1 | O=C1CCC(N2C(=O)c3ccc(CN4CC=C(c5nccc(Cl)c5Cl)CC4)cc3C2=O)C(=O)N1 (centres unmarked) [GT-06608, 5-((3,4-dichloro-3',6'-dihydro-[2,4'-bipyridin]-1'(2'H)-yl)methyl)-2-(2,6-dioxopiperidin-3-yl)isoindoline-1,3-dione] | B (80%< substrate protein remaining %≤ 100%) | B (80%< substrate protein remaining %≤ 100%) | 100 to 500 | B (80%< substrate protein remaining %≤ 100%) | A (0% ≤ substrate protein remaining % ≤ 80%) | B (80%< substrate protein remaining %≤ 100%) | 100 to 500 | 10 to 50 | B (80%< substrate protein remaining %≤ 100%) | 100 to 500 | 1000 to 1500 | 100 to 500 |  |  | 
2 | O=C1CCC(N2C(=O)c3ccc(CN4CCN(c5n[nH]c6cc(F)ccc56)CC4)cc3C2=O)C(=O)N1 (centres unmarked) [GT-06632, 2-(2,6-dioxopiperidin-3-yl)-5-((4-(6-fluoro-1H-indazol-3-yl)piperazin-1-yl)methyl)isoindoline-1,3-dione] | A (0% ≤ substrate protein remaining % ≤ 80%) | A (0% ≤ substrate protein remaining % ≤ 80%) | 100 to 500 | A (0% ≤ substrate protein remaining % ≤ 80%) | A (0% ≤ substrate protein remaining % ≤ 80%) | A (0% ≤ substrate protein remaining % ≤ 80%) | 50 to 100 | 10 to 50 | A (0% ≤ substrate protein remaining % ≤ 80%) | 100 to 500 | 1500 to 1900 | 500 to 1000 |  |  | 
3 | O=C1CCC(N2C(=O)c3ccc(CN4CCC(c5c[nH]c6cc(F)ccc56)CC4)cc3C2=O)C(=O)N1 (centres unmarked) [GT-06633, 2-(2,6-dioxopiperidin-3-yl)-5-((4-(6-fluoro-1H-indol-3-yl)piperidin-1-yl)methyl)isoindoline-1,3-dione] | A (0% ≤ substrate protein remaining % ≤ 80%) | A (0% ≤ substrate protein remaining % ≤ 80%) | 100 to 500 | A (0% ≤ substrate protein remaining % ≤ 80%) | A (0% ≤ substrate protein remaining % ≤ 80%) | A (0% ≤ substrate protein remaining % ≤ 80%) | 100 to 500 | 50 to 100 | A (0% ≤ substrate protein remaining % ≤ 80%) | 100 to 500 |  | 100 to 500 |  |  | 
4 | Cn1cc(C2CCN(Cc3ccc4c(c3)C(=O)N(C3CCC(=O)NC3=O)C4=O)CC2)c2ccc(F)cc21 (centres unmarked) [GT-06635, 2-(2,6-dioxopiperidin-3-yl)-5-((4-(6-fluoro-1-methyl-1H-indol-3-yl)piperidin-1-yl)methyl)isoindoline-1,3-dione] | A (0% ≤ substrate protein remaining % ≤ 80%) | A (0% ≤ substrate protein remaining % ≤ 80%) | 100 to 500 | A (0% ≤ substrate protein remaining % ≤ 80%) | A (0% ≤ substrate protein remaining % ≤ 80%) | A (0% ≤ substrate protein remaining % ≤ 80%) | 50 to 100 | 10 to 50 | A (0% ≤ substrate protein remaining % ≤ 80%) | 50 to 100 |  | 100 to 500 |  |  | 
5 | Cn1cc(C2=CCN(Cc3ccc4c(c3)C(=O)N(C3CCC(=O)NC3=O)C4=O)CC2)c2ccc(F)cc21 (centres unmarked) [GT-06636, 2-(2,6-dioxopiperidin-3-yl)-5-((4-(6-fluoro-1-methyl-1H-indol-3-yl)-3,6-dihydropyridin-1(2H)-yl)methyl)isoindoline-1,3-dione] | A (0% ≤ substrate protein remaining % ≤ 80%) | A (0% ≤ substrate protein remaining % ≤ 80%) | 50 to 100 | A (0% ≤ substrate protein remaining % ≤ 80%) | A (0% ≤ substrate protein remaining % ≤ 80%) | A (0% ≤ substrate protein remaining % ≤ 80%) | 10 to 50 | 10 to 50 | A (0% ≤ substrate protein remaining % ≤ 80%) | 10 to 50 | 1000 to 1500 | 100 to 500 | 500 to 1000 |  | 
6 | CC(C)c1cc2c(C3=CCN(Cc4ccc5c(c4)C(=O)N(C4CCC(=O)NC4=O)C5=O)CC3)ncnc2s1 (centres unmarked) [GT-06656, 2-(2,6-dioxopiperidin-3-yl)-5-((4-(6-isopropylthieno[2,3-d]pyrimidin-4-yl)-3,6-dihydropyridin-1(2H)-yl)methyl)isoindoline-1,3-dione] | A (0% ≤ substrate protein remaining % ≤ 80%) | A (0% ≤ substrate protein remaining % ≤ 80%) | 50 to 100 | A (0% ≤ substrate protein remaining % ≤ 80%) | A (0% ≤ substrate protein remaining % ≤ 80%) | B (80%< substrate protein remaining %≤ 100%) | 10 to 50 | 10 to 50 | A (0% ≤ substrate protein remaining % ≤ 80%) | 10 to 50 | 1000 to 1500 | 100 to 500 |  |  | 
7 | O=C1CCC(N2C(=O)c3ccc(CN4CC=C(c5ncnc6sc(-c7ccccc7)cc56)CC4)cc3C2=O)C(=O)N1 (centres unmarked) [GT-06675, 2-(2,6-dioxopiperidin-3-yl)-5-((4-(6-phenylthieno[2,3-d]pyrimidin-4-yl)-3,6-dihydropyridin-1(2H)-yl)methyl)isoindoline-1,3-dione] | B (80%< substrate protein remaining %≤ 100%) | B (80%< substrate protein remaining %≤ 100%) | 50 to 100 | B (80%< substrate protein remaining %≤ 100%) | B (80%< substrate protein remaining %≤ 100%) | A (0% ≤ substrate protein remaining % ≤ 80%) | 10 to 50 | 50 to 100 | B (80%< substrate protein remaining %≤ 100%) | 10 to 50 | 500 to 1000 | 100 to 500 | 100 to 500 | 500 to 1000 | 500 to 1000
8 | O=C1CCC(N2C(=O)c3ccc(CN4CC=C(c5ncnc6sc7c(c56)CCCC7)CC4)cc3C2=O)C(=O)N1 (centres unmarked) [GT-06680, 2-(2,6-dioxopiperidin-3-yl)-5-((4-(5,6,7,8-tetrahydrobenzo[4,5]thieno[2,3-d]pyrimidin-4-yl)-3,6-dihydropyridin-1(2H)-yl)methyl)isoindoline-1,3-dione] | A (0% ≤ substrate protein remaining % ≤ 80%) | A (0% ≤ substrate protein remaining % ≤ 80%) |  | A (0% ≤ substrate protein remaining % ≤ 80%) | A (0% ≤ substrate protein remaining % ≤ 80%) | B (80%< substrate protein remaining %≤ 100%) | 100 to 500 | 10 to 50 | A (0% ≤ substrate protein remaining % ≤ 80%) | 100 to 500 | 1500 to 1900 | 100 to 500 |  |  | 
9 | Cc1ccc(Sc2ccccc2N2CCN(Cc3ccc4c(c3)C(=O)N(C3CCC(=O)NC3=O)C4=O)CC2)c(C)c1 (centres unmarked) [GT-06761, 5-((4-(2-((2,4-dimethylphenyl)thio)phenyl)piperazin-1-yl)methyl)-2-(2,6-dioxopiperidin-3-yl)isoindoline-1,3-dione] | A (0% ≤ substrate protein remaining % ≤ 80%) | A (0% ≤ substrate protein remaining % ≤ 80%) |  | A (0% ≤ substrate protein remaining % ≤ 80%) | A (0% ≤ substrate protein remaining % ≤ 80%) | A (0% ≤ substrate protein remaining % ≤ 80%) | 100 to 500 | 10 to 50 | A (0% ≤ substrate protein remaining % ≤ 80%) | 100 to 500 |  | 100 to 500 |  |  | 
